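How tested: cells in 96-well plates exposed to compound for 48 hours at five concentrations. GI50 = concentration required for 50% inhibition of growth.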 Active and inactive are the calls of the source. Rule as the data show it: active = GI50 up to about 1.1 µM and inactive = higher.
How the values were obtained:
Test in all cases: inhibition of tumour cell growth, NCI panel, 48 h
NCI-H460 = system: NCI-H460
OVCAR-8 = system: OVCAR-8
A498 = system: A498
MDA-MB-435 = system: MDA-MB-435
M14 = system: M14
A549 = system: A549
SNB-75 = system: SNB-75
SK-MEL-28 = system: SK-MEL-28
HT-29 = system: HT-29
UO-31 = system: UO-31
UACC-62 = system: UACC-62
SR = system: SR
U-251 = system: U-251
T47D = system: T47D
TK-10 = system: TK-10
MCF7 = system: MCF7
COLO 205 = system: COLO 205
HOP-92 = system: HOP-92
HCT-116 = system: HCT-116
786-0 = system: 786-0
KM12 = system: KM12
SF-268 = system: SF-268
HCC 2998 = system: HCC 2998
RPMI-8226 = system: RPMI-8226
IGROV-1 = system: IGROV-1
DU-145 = system: DU-145
SW-620 = system: SW-620
OVCAR-4 = system: OVCAR-4
Malme-3M = system: Malme-3M
HCT-15 = system: HCT-15
Hs-578T = system: Hs-578T
PC-3 = system: PC-3
MOLT-4 = system: MOLT-4
NCI/ADR-RES = system: NCI/ADR-RES
NCI-H226 = system: NCI-H226
SN12C = system: SN12C
CAKI-1 = system: CAKI-1
BT-549 = system: BT-549
UACC-257 = system: UACC-257
SNB-19 = system: SNB-19
NCI-H23 = system: NCI-H23
OVCAR-5 = system: OVCAR-5
RXF 393 = system: RXF 393
K562 = system: K562
SK-MEL-2 = system: SK-MEL-2
LOX IMVI = system: LOX IMVI
CCRF-CEM = system: CCRF-CEM
SK-MEL-5 = system: SK-MEL-5
OVCAR-3 = system: OVCAR-3
EKVX = system: EKVX
NCI-H522 = system: NCI-H522
ACHN = system: ACHN
HL-60 = system: HL-60
MDA-N = system: MDA-N
SF-539 = system: SF-539
HOP-62 = system: HOP-62
SF-295 = system: SF-295
SK-OV-3 = system: SK-OV-3
MDA-MB-231 = system: MDA-MB-231

Compound: O=c1[nH]nc(-c2cccc(Br)c2)[nH]1
- GI50 (NCI-H460): > 100 µM (inactive)
- GI50 (OVCAR-8): > 100 µM (inactive)
- GI50 (A498): > 100 µM (inactive)
- GI50 (MDA-MB-435): > 100 µM (inactive)
- GI50 (M14): > 100 µM (inactive)
- GI50 (A549): > 100 µM (inactive)
- GI50 (SNB-75): 43.3 µM (inactive)
- GI50 (SK-MEL-28): > 100 µM (inactive)
- GI50 (HT-29): > 100 µM (inactive)
- GI50 (UO-31): 94.2 µM (inactive)
- GI50 (UACC-62): > 100 µM (inactive)
- GI50 (SR): > 100 µM (inactive)
- GI50 (U-251): > 100 µM (inactive)
- GI50 (T47D): > 100 µM (inactive)
- GI50 (TK-10): > 100 µM (inactive)
- GI50 (MCF7): > 100 µM (inactive)
- GI50 (COLO 205): > 100 µM (inactive)
- GI50 (HOP-92): > 100 µM (inactive)
- GI50 (HCT-116): > 100 µM (inactive)
- GI50 (786-0): > 100 µM (inactive)
- GI50 (KM12): > 100 µM (inactive)
- GI50 (SF-268): > 100 µM (inactive)
- GI50 (HCC 2998): > 100 µM (inactive)
- GI50 (RPMI-8226): > 100 µM (inactive)
- GI50 (IGROV-1): > 100 µM (inactive)
- GI50 (DU-145): > 100 µM (inactive)
- GI50 (SW-620): > 100 µM (inactive)
- GI50 (OVCAR-4): > 100 µM (inactive)
- GI50 (Malme-3M): > 100 µM (inactive)
- GI50 (HCT-15): > 100 µM
- GI50 (Hs-578T): 18.2 µM (inactive)
- GI50 (PC-3): > 100 µM (inactive)
- GI50 (MOLT-4): > 100 µM (inactive)
- GI50 (NCI/ADR-RES): > 100 µM (inactive)
- GI50 (NCI-H226): > 100 µM (inactive)
- GI50 (SN12C): > 100 µM (inactive)
- GI50 (CAKI-1): > 100 µM (inactive)
- GI50 (BT-549): 4.74 µM (inactive)
- GI50 (UACC-257): > 100 µM (inactive)
- GI50 (SNB-19): > 100 µM (inactive)
- GI50 (NCI-H23): > 100 µM (inactive)
- GI50 (OVCAR-5): > 100 µM (inactive)
- GI50 (RXF 393): > 100 µM (inactive)
- GI50 (K562): > 100 µM (inactive)
- GI50 (SK-MEL-2): > 100 µM (inactive)
- GI50 (LOX IMVI): > 100 µM (inactive)
- GI50 (CCRF-CEM): > 100 µM (inactive)
- GI50 (SK-MEL-5): > 100 µM (inactive)
- GI50 (OVCAR-3): > 100 µM (inactive)
- GI50 (EKVX): 2.48 µM (inactive)
- GI50 (NCI-H522): > 100 µM (inactive)
- GI50 (ACHN): > 100 µM (inactive)
- GI50 (HL-60): > 100 µM (inactive)
- GI50 (MDA-N): > 100 µM (inactive)
- GI50 (SF-539): > 100 µM (inactive)
- GI50 (HOP-62): > 100 µM (inactive)
- GI50 (SF-295): > 100 µM (inactive)

Compound: CC(=O)Nc1ccc(C(=O)N[C@@H]2C(=O)N3[C@@H]2SC(C)(C)[C@@H]3C(=O)O)cn1
- GI50 (NCI-H460): > 100 µM (inactive)
- GI50 (OVCAR-8): > 100 µM (inactive)
- GI50 (A498): > 100 µM (inactive)
- GI50 (MDA-MB-435): > 100 µM (inactive)
- GI50 (SK-OV-3): > 100 µM (inactive)
- GI50 (M14): > 100 µM (inactive)
- GI50 (A549): > 100 µM (inactive)
- GI50 (SNB-75): > 100 µM (inactive)
- GI50 (SK-MEL-28): > 100 µM (inactive)
- GI50 (HT-29): > 100 µM (inactive)
- GI50 (UO-31): > 100 µM (inactive)
- GI50 (UACC-62): > 100 µM (inactive)
- GI50 (U-251): > 100 µM (inactive)
- GI50 (T47D): > 100 µM (inactive)
- GI50 (TK-10): > 100 µM (inactive)
- GI50 (MCF7): > 100 µM (inactive)
- GI50 (MDA-MB-231): > 100 µM (inactive)
- GI50 (COLO 205): > 100 µM (inactive)
- GI50 (HOP-92): > 100 µM (inactive)
- GI50 (HCT-116): > 100 µM (inactive)
- GI50 (786-0): > 100 µM (inactive)
- GI50 (KM12): > 100 µM (inactive)
- GI50 (SF-268): > 100 µM (inactive)
- GI50 (HCC 2998): > 100 µM (inactive)
- GI50 (RPMI-8226): > 100 µM (inactive)
- GI50 (IGROV-1): > 100 µM (inactive)
- GI50 (DU-145): > 100 µM (inactive)
- GI50 (SW-620): > 100 µM (inactive)
- GI50 (OVCAR-4): > 100 µM (inactive)
- GI50 (Malme-3M): > 100 µM (inactive)
- GI50 (HCT-15): > 100 µM
- GI50 (Hs-578T): > 100 µM (inactive)
- GI50 (PC-3): > 100 µM (inactive)
- GI50 (MOLT-4): > 100 µM (inactive)
- GI50 (NCI/ADR-RES): > 100 µM (inactive)
- GI50 (NCI-H226): > 100 µM (inactive)
- GI50 (SN12C): > 100 µM (inactive)
- GI50 (CAKI-1): > 100 µM (inactive)
- GI50 (BT-549): > 100 µM (inactive)
- GI50 (UACC-257): > 100 µM (inactive)
- GI50 (SNB-19): > 100 µM (inactive)
- GI50 (NCI-H23): > 100 µM (inactive)
- GI50 (OVCAR-5): > 100 µM (inactive)
- GI50 (RXF 393): > 100 µM (inactive)
- GI50 (K562): > 100 µM (inactive)
- GI50 (SK-MEL-2): > 100 µM (inactive)
- GI50 (LOX IMVI): > 100 µM (inactive)
- GI50 (CCRF-CEM): > 100 µM (inactive)
- GI50 (SK-MEL-5): > 100 µM (inactive)
- GI50 (OVCAR-3): > 100 µM (inactive)
- GI50 (EKVX): > 100 µM (inactive)
- GI50 (ACHN): > 100 µM (inactive)
- GI50 (HL-60): > 100 µM (inactive)
- GI50 (MDA-N): > 100 µM (inactive)
- GI50 (HOP-62): > 100 µM (inactive)
- GI50 (SF-295): > 100 µM (inactive)

From ChEMBL document CHEMBL1201862, “PubChem BioAssay data set” (2004)
